Drawing on ChEMBL document CHEMBL3046046, “Design, synthesis, and QSAR study of novel 2-(2,3-dioxo-2,3-dihydro-1H-indol-1-yl)-N-phenylacetamide derivatives as cytotoxic agents” (Med Chem Res, 2011), this text covers IC50, viability and Activity for 11 compounds.

Series [1] deals with MCF7. Description: Cytotoxicity against Homo sapiens (human) MCF7 cells after 72 hr by XTT assay. It counts as functional, cell-based. To be noted: MCF7, 72 h.
Series [2] concerns Vero. Description: Cytotoxicity against Chlorocebus aethiops (African green monkey) Vero cells after 72 hr by XTT assay. The format is cell-based. The following applies: Chlorocebus sabaeus.
Series [3] in a line: Cytotoxicity against Chlorocebus aethiops (African green monkey) Vero cells assessed as cell survival after 72 hr by XTT assay. Set-up: concentration or dose not given beside the values. The format is cell-based. To be noted: chlorocebus sabaeus, read-out: Activity.
The subject of series [4] is MCF7. As to the kind of experiment: Cytotoxicity against Homo sapiens (human) MCF7 cells assessed as cell survival after 72 hr by XTT assay. It counts as functional. Details: concentration or dose not given beside the values.

Bounds are passed on as bounds.

Regarding `O=C(CN1C(=O)C(=O)c2cc(Br)cc(Br)c21)Nc1ccc([N+](=O)[O-])cc1`, the values for the half-maximal inhibitory concentration (IC50) in series [1] and in series [2] were 1.96 µM and 38.1 µM, respectively.
As to `Cc1ccc(NC(=O)CN2C(=O)C(=O)c3cc(Br)cc(Br)c32)cc1`, the IC50 in series [1] turned out to be 2.43 µM; in series [2], 25 µM.
On to `O=C(CN1C(=O)C(=O)c2cc(Br)cc(Br)c21)Nc1ccccc1[N+](=O)[O-]`, for which the half-maximal inhibitory concentration (IC50) in series [1] is 2.04 µM; in series [2], 26 µM.
The corresponding values for `Cc1ccccc1NC(=O)CN1C(=O)C(=O)c2cc(Br)cc(Br)c21` are 3.85 µM and 29.9 µM.
With `O=C(CN1C(=O)C(=O)c2ccccc21)Nc1ccc([N+](=O)[O-])cc1`, the viability at 72 h in series [3] is over 50%. Moreover, in series [4], the Activity is reported as over 50%.
`Cc1ccc(NC(=O)CN2C(=O)C(=O)c3ccccc32)cc1`: in series [3], the viability at 72 h is over 50%. Moreover, the Activity in series [4] is on record as over 50%.
For `O=C(CN1C(=O)C(=O)c2ccccc21)Nc1ccccc1[N+](=O)[O-]` the same measures were over 50% and over 50%.
The corresponding values for `Cc1ccccc1NC(=O)CN1C(=O)C(=O)c2ccccc21` are over 50% and over 50%.
As for `O=C(CN1C(=O)C(=O)c2cc(Br)cc(Br)c21)Nc1ccccc1`, the half-maximal inhibitory concentration (IC50) in series [1] amounted to 3.91 µM; in series [2], 28.1 µM.
For `O=C(CN1C(=O)C(=O)c2ccccc21)Nc1ccccc1`, in series [3], the viability at 72 h was over 50%. The Activity in series [4] is listed as over 50%.
Take `CC[C@]1(O)C[C@@H]2CN(CCc3c([nH]c4ccccc34)[C@@](C(=O)OC)(c3cc4c(cc3OC)N(C)[C@H]3[C@@](O)(C(=O)OC)[C@H](OC(C)=O)[C@]5(CC)C=CCN6CC[C@]43[C@@H]65)C2)C1` [VINBLASTINE]: the IC50 in series [1] is 1.9 µM; in series [2], 27.1 µM.
